# Literature values in patent US7970581B2, “Methods of calculating differences of binding affinities between congeneric pairs of ligands by way of a displaced solvent functional” (The Trustees of Columbia University in the City of New York, priority 2007, dated 2011).
# Target: factor Xa (Homo sapiens, UniProt P00742)
# Conditions: experimental binding free energy of crystal structure ligand
# Chain of factor Xa (P00742 235-488 limits assumed): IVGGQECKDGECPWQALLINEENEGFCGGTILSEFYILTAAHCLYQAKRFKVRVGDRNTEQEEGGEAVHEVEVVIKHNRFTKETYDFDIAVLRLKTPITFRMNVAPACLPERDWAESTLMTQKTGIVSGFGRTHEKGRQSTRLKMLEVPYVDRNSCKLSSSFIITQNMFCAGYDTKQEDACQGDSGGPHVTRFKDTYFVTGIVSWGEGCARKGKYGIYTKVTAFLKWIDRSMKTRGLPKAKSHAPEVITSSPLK
# Chain of factor Xa (P00742 41-179 partner limits assumed): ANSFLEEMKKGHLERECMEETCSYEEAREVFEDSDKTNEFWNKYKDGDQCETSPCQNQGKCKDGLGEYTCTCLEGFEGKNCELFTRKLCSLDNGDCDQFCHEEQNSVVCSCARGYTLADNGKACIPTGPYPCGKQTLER
row,SMILES,ΔGexp [kcal/mol]
1,Cc1nc2ccccc2n1Cc1ccc2c(c1)nc(CNc1ccc(C(=N)N)cc1)n2C [1G2M:R11],-10.09
2,CCOC(=O)CO/N=C(\c1ccccn1)C1(c2ccc3c(c2)nc(CNc2ccc(C(=N)N)cc2)n3C)CC1 [1G2L:T87],-9.88
3,CN1CCN(Cc2csc(C(=O)Nc3ccc(Cl)cc3C(=O)Nc3ccc(Cl)cc3)c2Cl)CC1 [1MQ5:XLC],-12.28
4,Cc1cc(C)cc(CNC(=O)c2cc3c(C)cccc3n2Cc2cccc(C(=N)N)c2)c1 [1LQD:CMI],-10.98
5,COc1cc(Cl)cc(C(=O)Nc2ccc(Cl)cn2)c1NC(=O)c1scc(C/[N+](C)=C2\NCCO2)c1Cl [1MQ6:XLD],-15.22
6,COc1cccc(Cn2c(C(=O)NC3CCN(C(C)C)CC3)cc3ccccc32)c1 [2BQ7:IID],-9.62

# Other lines, results leading:
row,ΔGexp [kcal/mol],SMILES
1,-11.63,CC(C)N1CCC(NC(=O)c2cc3ccccc3n2CC(=O)Nc2ccc(Cl)cc2)CC1 [2BQW:IIE]
2,-10.57,COc1ccc(C(=O)NCC2CCN(c3ccncc3)CC2)cc1OCCc1cc(Cl)cc(Cl)c1 [2BMG:I1H]
3,-11.63,CC(C)N1CCC(NC(=O)c2cc3ccccc3n2-c2cc(-c3ccc(Cl)s3)on2)CC1 [2BOH:IIA]
4,-12.12,N=C(N)c1ccc(CN2CCN(S(=O)(=O)c3cc4ccc(Cl)cc4s3)CC2=O)cc1 [1NFY:RTR]
